{"source": "patent US20250255929A1", "about": "“METHODS FOR REDUCING RISKS ASSOCIATED WITH HEART FAILURE AND FACTORS ASSOCIATED THEREWITH” (Stealth BioTherapeutics Inc., priority 2012, published 2025)", "format_in_all_cases": "in vivo", "key": {"TNF-alpha": {"system": "TNF-alpha", "experiment": "Plasma TNF-alpha (double antibody sandwich ELISA) in dog model of heart failure", "conditions": "for plasma TNF-alpha levels (FIG. 4), in words: HF dogs", "method": "The methods of Example 1 was used induce heart failure, administer peptide or vehicle, and to collect plasma samples for analysis. Fourteen dogs were used in this example. Half the dogs were treated with the peptide; the other half were treated with drug vehicle and served as controls. Peptide treatment was started in both groups upon induction of heart failure (HF), defined as left ventricular ejection fraction of approximately 30%.\nTNF-alpha was quantified in EDTA-plasma using a double antibody sandwich ELISA. Briefly, TNF-alpha (Canine TNFα Duo Sett, Cat #DY1507) was purchased from R&D Systems. The assay was performed based on instructions provided by the supplier with minor modifications. The amount of EDTA-plasma incubated with antibody plate was 150 μl and incubation time was 18 hours at 4° C. Using standard curves and software, the concentration of TNFα was expressed as pg/ml."}, "NT-pro BNP": {"system": "NT-pro BNP", "experiment": "Plasma NT-pro BNP (double antibody sandwich ELISA) in dog model of heart failure", "conditions": "for plasma NT-pro BNP levels (FIG. 5), in words: HF dogs", "method": "Heart failure was induced in dogs via multiple sequential intracoronary microembolizations as described in Sabbah, et al., Am J Physiol. (1991) 260:H1379-84, herein incorporated by reference in its entirety and summarized in Example 1.\nHeart failure was induced as described in Example 1. […] Half the dogs were treated with the peptide; the other half were treated with drug vehicle and served as controls. Peptide treatment was started upon induction of heart failure (HF), defined as left ventricular ejection fraction of approximately 30%. The daily dose of the peptide was 0.5 mg/kg/day administered intravenously. Blood samples were drawn on EDTA anticoagulant and were centrifuged at 2,500 RPM and the plasma extracted, aliquoted in 1 ml volumes into crystat tubes and stored at −70° C. until assayed. Once the follow-up was completed in all dogs, the plasma samples were thawed to room temperature and NT-pro BNP was assayed.\nNt-pro BNP (pg/ml) was determined in EDTA-plasma on the principle of the double antibody sandwich Enzyme-linked immunosorbent assay (ELISA). The assay was performed based upon the instructions came along with the assay kit (NT-pro BNP, Kamiya Biomedical Company, Cat #KT-23770). Using standard curves with the help of Software (MasterPlex-2010), the concentration of each biomarker was determined."}, "[1]": {"system": "mitochondrial ATP-sensitive potassium channel (mK ATP)", "experiment": "mK ATP activation in LV mitochondria (thallium-sensitive fluorophore assay), dog model of heart failure", "conditions": "LV mitochondria of HF dogs after three months, 0.5 mg/kg/day, n=5; control 1372±112, p<0.05", "method": "(§1) Heart failure was induced in dogs via multiple sequential intracoronary microembolizations as described in Sabbah, et al., Am J Physiol. (1991) 260:H1379-84, herein incorporated by reference in its entirety.\n(§2) Heart failure was induced as described in Example 1. […] Half the dogs were treated with the peptide (n=5); the other half were treated with drug vehicle and served as controls (n=5). Peptide treatment was started upon induction of heart failure (HF), defined as left ventricular ejection fraction of approximately 30%. The daily dose of the peptide was 0.5 mg/kg/day administered intravenously for three months. Subcutaneous daily injections of saline were administered to the controls. Left ventricular tissue was harvested at the end of the three months of treatment. Mitochondria were isolated from the tissue. MK ATP activation was measured using the thallium-sensitive fluorophore assay kit and quantified in relative fluorescence units (RFU) per mg protein. Mitochondrial ATP to ADP ratio was measured using the bioluminescent ApoSENSOR™ assay kit (Enzo Life Sciences, Farmingdale, NY)."}, "[2]": {"system": "Mitochondrial ATP to ADP ratio", "experiment": "Mitochondrial ATP to ADP ratio (ApoSENSOR assay) in LV mitochondria, dog model of heart failure", "conditions": "LV mitochondria of HF dogs after three months, 0.5 mg/kg/day, n=5; control 0.38±0.04, p<0.05", "method": "as §2"}, "Taz1": {"system": "Taz1", "experiment": "Taz1 mRNA in LV tissue (real-time PCR), dog model of heart failure", "conditions": "LV tissue of HF dogs, 3 months, 0.5 mg/kg once daily s.c., n=6; untreated HF decreased 2.25-fold vs normal; normalized to GAPDH", "method": "as §1\n(§3) Twelve dogs were subject to coronary microembolization-induced heart failure (LV ejection fraction ˜30%) as described in Example 1. […] RNA was prepared from LV tissue of all 12 dogs at the end of the treatment phase and from the LV of 6 normal (NL) dogs for comparison. mRNA levels of Taz1, MLCL AT1 and ALCAT1 were determined by real-time PCR. Changes in mRNA expression were expressed as fold changes using the CT Method with normalization to […] (GAPDH) as internal control."}, "MLCL AT1": {"system": "MLCL AT1", "experiment": "MLCL AT1 mRNA in LV tissue (real-time PCR), dog model of heart failure", "conditions": "LV tissue of HF dogs, 3 months, 0.5 mg/kg once daily s.c., n=6; untreated HF increased 2.60-fold vs normal; normalized to GAPDH", "method": "as §1, §3"}, "ALCAT1": {"system": "ALCAT1", "experiment": "ALCAT1 mRNA in LV tissue (real-time PCR), dog model of heart failure", "conditions": "LV tissue of HF dogs, 3 months, 0.5 mg/kg once daily s.c., n=6; untreated HF increased 3.56-fold vs normal; normalized to GAPDH", "method": "as §1, §3"}, "[3]": {"conditions": "plasma, peptide group, individual dogs, heart failure prior to initiating therapy"}}, "note": "Values joined by “and” are separate entries in the source; they are usually repeats but may differ in a detail not shown here. Identical values can stand only once. Square brackets hold non-standard residues; d marks the D form. Ends that are not written are not given here. Dmt = Cc1cc(O)cc(C)c1C[C@H](N)C(=O)O", "data": [{"substance": "D-Arg-2′,6′-Dmt-Lys-Phe-NH2 ([dR][Dmt]KF-NH2) [aromatic-cationic peptide]", "values": [{"measurement": "plasma TNF-alpha levels (FIG. 4), in words", "setting": "TNF-alpha; treatment for 12 weeks", "value": "near normal levels"}, {"measurement": "plasma TNF-alpha levels (FIG. 4), in words", "setting": "TNF-alpha; treatment for six weeks", "value": "reduced TNF-alpha levels"}, {"measurement": "TNF-α concentration, 6 Wk", "setting": "TNF-alpha; plasma, individual HF dogs, 6 weeks after initiating therapy", "value": "3.27 pg/mL and 3.08 pg/mL and 3.50 pg/mL and 3.16 pg/mL and 3.72 pg/mL and 3.12 pg/mL and 2.60 pg/mL"}, {"measurement": "TNF-α concentration, 12 Wk", "setting": "TNF-alpha; plasma, individual HF dogs, 12 weeks after initiating therapy", "value": "1.14 pg/mL and 1.42 pg/mL and 1.18 pg/mL and 1.75 pg/mL and 1.69 pg/mL and 1.53 pg/mL and 1.35 pg/mL"}, {"measurement": "TNF-α concentration, 6 Wk, Mean", "setting": "TNF-alpha; plasma, mean of 7 HF dogs, 6 weeks after initiating therapy", "value": 3.21, "unit": "pg/mL"}, {"measurement": "TNF-α concentration, 12 Wk, Mean", "setting": "TNF-alpha; plasma, mean of 7 HF dogs, 12 weeks after initiating therapy", "value": 1.44, "unit": "pg/mL"}, {"measurement": "TNF-α concentration, BL, Mean", "setting": "TNF-alpha; plasma, peptide group mean (7 dogs), baseline (before HF and treatment)", "value": 1.24, "unit": "pg/mL"}, {"measurement": "TNF-α concentration, PRE, Mean", "setting": "TNF-alpha; plasma, peptide group mean (7 dogs), heart failure prior to initiating therapy", "value": 4.36, "unit": "pg/mL"}, {"measurement": "TNF-α concentration, BL", "setting": "TNF-alpha; plasma, peptide group, individual dogs, baseline (before HF and treatment)", "value": "0.90 pg/mL and 0.97 pg/mL and 1.02 pg/mL and 1.85 pg/mL and 1.30 pg/mL and 1.11 pg/mL and 1.54 pg/mL"}, {"measurement": "TNF-α concentration, PRE", "setting": "TNF-alpha; [3]", "value": "4.26 pg/ml (2×) and 3.96 pg/ml and 4.69 pg/ml and 4.59 pg/ml and 4.31 pg/ml and 4.42 pg/ml"}, {"measurement": "plasma NT-pro BNP levels (FIG. 5), in words", "setting": "NT-pro BNP; treatment for 12 weeks", "value": "normal or near normal levels"}, {"measurement": "plasma NT-pro BNP levels (FIG. 5), in words", "setting": "NT-pro BNP; treatment for six weeks", "value": "reduced NT-pro BNP levels"}, {"measurement": "NT-pro BNP, 6Wk, AVG", "setting": "NT-pro BNP; plasma, average of 7 HF dogs, 6 weeks after initiating therapy, 0.5 mg/kg/day", "value": 667, "unit": "pg/mL"}, {"measurement": "NT-pro BNP, 12 Wk, AVG", "setting": "NT-pro BNP; plasma, average of 7 HF dogs, 12 weeks after initiating therapy, 0.5 mg/kg/day", "value": 354, "unit": "pg/mL"}, {"measurement": "NT-pro BNP, 6Wk", "setting": "NT-pro BNP; plasma, individual HF dogs, 6 weeks after initiating therapy, 0.5 mg/kg/day", "value": "695 pg/ml (2×) and 559 pg/ml and 796 pg/ml and 680 pg/ml and 593 pg/ml and 654 pg/ml"}, {"measurement": "NT-pro BNP, 12 Wk", "setting": "NT-pro BNP; plasma, individual HF dogs, 12 weeks after initiating therapy, 0.5 mg/kg/day", "value": "299 pg/mL and 422 pg/mL and 234 pg/mL and 294 pg/mL and 417 pg/mL and 393 pg/mL and 423 pg/mL"}, {"measurement": "NT-pro BNP, BL, AVG", "setting": "NT-pro BNP; plasma, peptide group average (7 dogs), baseline before heart failure (before treatment)", "value": 278, "unit": "pg/mL"}, {"measurement": "NT-pro BNP, Pre, AVG", "setting": "NT-pro BNP; plasma, peptide group average (7 dogs), heart failure prior to initiating therapy", "value": 1128, "unit": "pg/mL"}, {"measurement": "NT-pro BNP, BL", "setting": "NT-pro BNP; plasma, peptide group, individual dogs, baseline before heart failure (before treatment)", "value": "257 pg/mL and 203 pg/mL and 271 pg/mL and 320 pg/mL and 289 pg/mL and 265 pg/mL and 346 pg/mL"}, {"measurement": "NT-pro BNP, Pre", "setting": "NT-pro BNP; [3]", "value": "1512 pg/mL and 1223 pg/mL and 1078 pg/mL and 1034 pg/mL and 1018 pg/mL and 1090 pg/mL and 941 pg/mL"}, {"measurement": "activation of mK ATP", "setting": "[1]", "value": "2775±254 relative fluorescence units (R"}, {"measurement": "ATP/ADP (mitochondrial ATP to ADP ratio)", "setting": "[2]", "value": "1.16±0.15"}, {"measurement": "Taz1 mRNA: attenuated decrease, fold", "setting": "Taz1", "value": 1.23, "unit": "fold"}, {"measurement": "MLCL AT1 mRNA: reduced increase, fold", "setting": "MLCL AT1", "value": 1.18, "unit": "fold"}, {"measurement": "ALCAT1 mRNA: reduced increase, fold", "setting": "ALCAT1", "value": 1.54, "unit": "fold"}]}]}
